# Test results: ChEMBL document CHEMBL1128244, “Synthesis, structure-activity relationships, and pharmacological evaluation of pyrrolo[3,2,1-ij]quinoline derivatives: potent histamine and platelet activating factor antagonism and 5-lipoxygenase inhibitory properties. Potential therapeutic application in asthma” (J Med Chem, 1995)
# Active and inactive are the calls of the source. The rule behind the calls is not given here.
# How the values were obtained:
# [1] = target: T1, Polyunsaturated fatty acid 5-lipoxygenase (Homo sapiens) (UniProt P09917); experiment: (§1) Inhibitory activity uM; conditions: Cavia porcellus; concentration not given here
# T1 sequence (whole entry): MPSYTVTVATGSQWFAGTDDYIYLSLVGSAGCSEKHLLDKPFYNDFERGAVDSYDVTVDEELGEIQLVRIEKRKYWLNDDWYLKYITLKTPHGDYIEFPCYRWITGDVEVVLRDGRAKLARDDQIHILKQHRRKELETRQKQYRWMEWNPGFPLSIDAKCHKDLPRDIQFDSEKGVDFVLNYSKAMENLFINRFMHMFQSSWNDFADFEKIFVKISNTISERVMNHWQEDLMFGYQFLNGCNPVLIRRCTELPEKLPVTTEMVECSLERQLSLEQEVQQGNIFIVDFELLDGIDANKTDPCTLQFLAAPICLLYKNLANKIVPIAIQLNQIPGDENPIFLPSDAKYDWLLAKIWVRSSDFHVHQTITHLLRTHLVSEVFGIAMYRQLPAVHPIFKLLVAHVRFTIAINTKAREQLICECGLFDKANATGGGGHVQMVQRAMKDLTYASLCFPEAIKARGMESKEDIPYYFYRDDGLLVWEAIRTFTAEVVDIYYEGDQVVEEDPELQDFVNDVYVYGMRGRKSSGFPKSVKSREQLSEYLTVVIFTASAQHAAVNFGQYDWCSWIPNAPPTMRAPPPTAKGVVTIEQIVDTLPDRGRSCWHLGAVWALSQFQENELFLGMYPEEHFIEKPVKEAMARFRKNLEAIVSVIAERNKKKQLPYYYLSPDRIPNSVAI
# [2] = organism: Cavia porcellus; experiment: Ability to inhibit histamine-induced contractions of isolated guinea pig ileum; format: functional
# [3] = organism: Rattus norvegicus; experiment: Inhibition of cutaneous histamine reaction in rats.; format: functional
# [4] = organism: Oryctolagus cuniculus; experiment: Test against PAF-induced aggregation of rabbit platelets in vitro; format: functional
# [5] = organism: Cavia porcellus; experiment: Ability to inhibit histamine-induced contractions of isolated guinea pig ileum at 10e-5 M; format: functional
# [6] = target: T1, Polyunsaturated fatty acid 5-lipoxygenase (Homo sapiens); experiment: Inhibitory activity against partially-purified Guinea pig PMN 5-lipoxygenase at 10 uM; conditions: Cavia porcellus, target entry is the homologue from another species
# [7] = system: Rattus norvegicus; experiment: Antiallergic activity in the rat PCA assay following oral administration 1 hour before antigen challenge. Five animals were used in this experiment.; format: functional
# [8] = organism: Cavia porcellus; experiment: Ability to inhibit histamine-induced contractions of isolated guinea pig ileum at 10e-6 M; Not active; format: functional
# [9] = system: Cavia porcellus; experiment: Ability to inhibit histamine phase of platelet activating factor (PAF)-induced bronchoconstriction in vivo in pulmonary function assays in which Guinea pigs were dosed orally 5 hours prior to test; format: functional; conditions: po
# [10] = system: Cavia porcellus; experiment: Ability to inhibit histamine phase of antigen-induced bronchoconstriction in vivo in pulmonary function assays in which Guinea pigs were dosed orally 5 hours prior to test at 10 uM/kg; Not active; format: functional, organism-based
# [11] = target: T1, Polyunsaturated fatty acid 5-lipoxygenase (Homo sapiens); experiment: as §1; format: functional; conditions: Cavia porcellus; concentration not given here
# [12] = system: Cavia porcellus; experiment: Ability to inhibit histamine phase of antigen-induced bronchoconstriction in vivo in pulmonary function assays in which Guinea pigs were dosed orally 5 hours prior to test; format: functional; conditions: po
SMILES,IC50 [2] [nM],IC50 [4] [nM],ED50 [3] [µmol/kg],also measured
Cc1ccnc(N2CCN(CCc3c(C)n4c5c(cc(C)cc35)CCC4)CC2)c1,70,9100,,
Cc1ccnc(N2CCN(CCc3c(C)n4c5c(cc(C(=O)C(C)C)cc35)CCC4)CC2)c1,37,1900,2.9,inhibition [6]: 36%
Cc1cccnc1N1CCN(CCc2c(C)n3c4c(cccc24)CCC3)CC1,,67000,,inhibition at 10 µM [5]: 7%
Cc1ccnc(N2CCN(CCc3c(-c4ccc(Cl)cc4)n4c5c(cccc35)CCC4)CC2)c1,,3300,,inhibition at 10 µM [5]: 6%
Cc1ccnc(N2CCN(CCc3c(C)n4c5c(cccc35)CCC4C3CCCCC3)CC2)c1 (stereo unspecified),,25000,,inhibition at 10 µM [5]: 50%
Cc1c(CCN2CCN(c3ccc(Br)cn3)CC2)c2cccc3c2n1CCC3,990,> 100000,,
COc1ccccc1N1CCN(CCc2c(C)n3c4c(cccc24)CCC3)CC1,250,82000,,
Cc1cccc(N2CCN(CCc3c(C)n4c5c(cccc35)CCC4)CC2)n1,350,47000,,
Cc1ccnc(N2CCN(CCc3c(C)n4c5c(cc(C(=O)C(C)(C)C)cc35)CCC4)CC2)c1,89,5900,3.3,inhibition [1]: 22%
Cc1ccnc(N2CCN(CCc3c(-c4ccc(O)cc4)n4c5c(cccc35)CCC4)CC2)c1,,2000,,inhibition at 10 µM [5]: 14%
COc1ccc(CN(CCN(C)C)c2ccccn2)cc1 [PYRILAMINE],17,> 100000,,
Cc1ccc(N2CCN(C(=O)Cc3c(C)n4c5c(cccc35)CCC4)CC2)nc1,8300,42000,,
CCCCC1CCc2cc(OC)cc3c(CCN4CCN(c5cc(C)ccn5)CC4)c(C)n1c23 (stereo unspecified),340,1400,0.9,inhibition [1]: 50%
O=C(c1ccccc1)c1cccc(NC(=O)c2ccn3c2CS[C@@H]3c2cccnc2)c1 [TULOPAFANT],,,,IC50 [8]: Not Active; ED50 [9]: 5.5 µmol/kg; ED50 [10]: inactive
COc1ccc(-c2c(CCN3CCN(c4cc(C)ccn4)CC3)c3cccc4c3n2CCC4)cc1,,600,,inhibition at 10 µM [5]: 15%
Cc1ccnc(N2CCN(C(=O)Cc3c(C)n4c5c(cccc35)CCC4)CC2)c1,5900,9600,,
Cc1c(CCN2CCC(C(=O)c3ccc(F)cc3)CC2)c2cccc3c2n1CCC3,490,> 100000,,
Cc1c(CCCN2CCN(c3ccc(F)cc3)CC2)c2cccc3c2n1CCC3,1900,> 100000,,
Cc1ccnc(N2CCN(CCc3c(C)n4c5c(cc(N)cc35)CCC4)CC2)c1,80,84000,2.5,inhibition [11]: 64%

SMILES,IC50 [2] [nM],IC50 [4] [nM],ED50 [3] [µmol/kg],also measured
CCCCCCC(=O)c1cc2c3c(c1)c(CCN1CCN(c4cc(C)ccn4)CC1)c(C)n3CCC2,1200,2400,,
Cc1ccnc(N2CCN(CCc3c(-c4ccccc4)n4c5c(cccc35)CCC4)CC2)c1,,4200,,inhibition at 10 µM [5]: 24%
CC(c1cc2ccccc2s1)N(O)C(N)=O (stereo unspecified),,,,ED50 [10]: inactive
Cc1ccnc(N2CCN(CCc3cn4c5c(cccc35)CCC4)CC2)c1,63,31000,,
Cc1ccnc(N2CCN(CCc3c(C)n4c5c(cc(C(=O)/C=C/c6ccccc6)cc35)CCC4)CC2)c1,190,,,
Cc1ccnc(N2CCN(CCc3c(C)n4c5c(cccc35)CCC4c3ccccc3)CC2)c1 (stereo unspecified),280,2200,2.9,inhibition [1]: 17%
Cc1c(CCN2CCC(c3ccccc3)CC2)c2cccc3c2n1CCC3,450,75000,,
Cc1ccnc(N2CCN(CCc3c(C)n4c5c(cc(CC(C)C)cc35)CCC4)CC2)c1,800,4300,5.1,inhibition [1]: 20%
Cc1ccnc(N2CCN(CCc3c(C)n4c5c(cc(CC6CCCCC6)cc35)CCC4)CC2)c1,,39000,,inhibition at 10 µM [5]: 50%
CCCCCCCC1CCc2cccc3c(CCN4CCN(c5cc(C)ccn5)CC4)c(C)n1c23 (stereo unspecified),,,,inhibition at 10 µM [5]: 50%
COc1ccc(N2CCN(CCc3c(C)n4c5c(cccc35)CCC4)CC2)cc1,,82000,,inhibition at 10 µM [5]: 9%
Cc1c(CCN2CCN(c3ccc(F)cc3)CC2)c2cccc3c2n1CCC3,76,> 100000,,
CCCCC1CCc2cc(O)cc3c(CCN4CCN(c5cc(C)ccn5)CC4)c(C)n1c23 (stereo unspecified),260,2000,2.8,inhibition [1]: 100%; ED50 [12]: 1.9 µmol/kg; ED50 [9]: 2.1 µmol/kg; ED50 [7]: 0.9 µmol/kg
Cc1ccnc(N2CCN(CCCc3c(C)n4c5c(cccc35)CCC4)CC2)c1,1800,32000,,
Cc1ccnc(N2CCN(CCc3c(C)n4c5c(cc(Cc6ccccc6)cc35)CCC4)CC2)c1,2400,2800,,
COc1cc2c3c(c1)c(CCN1CCN(c4cc(C)ccn4)CC1)c(C)n3CCC2,30,6200,0.7,inhibition [1]: 15%
CN1CCC(=C2c3ccccc3CC(=O)c3sccc32)CC1 [KETOTIFEN],6.4,> 100000,0.16,ED50 [12]: 0.31 µmol/kg; ED50 [7]: 0.44 µmol/kg
CC(=O)Oc1cc2c3c(c1)c(CCN1CCN(c4cc(C)ccn4)CC1)c(C)n3CCC2,23,,,

# Now from value to compound, other results behind:
IC50 [2] [nM],IC50 [4] [nM],SMILES,ED50 [3] [µmol/kg],also measured
86,> 100000,Cc1ccnc(N2CCN(CCc3c(C)n4c5c(cc(NC(=O)c6ccccc6)cc35)CCC4)CC2)c1,3,inhibition [1]: 40%
,2000,Cc1ccnc(N2CCN(CCc3c(-c4ccc(F)cc4)n4c5c(cccc35)CCC4)CC2)c1,,inhibition at 10 µM [5]: 3%
290,800,Cc1ccnc(N2CCN(CCc3c(C)n4c5c(cc(C(=O)c6ccccc6)cc35)CCC4)CC2)c1,,
7100,44000,Cc1c(CC(=O)N2CCN(c3ccc(F)cc3)CC2)c2cccc3c2n1CCC3,,
1400,20000,Cc1ccnc(N2CCN(C(=O)CCc3c(C)n4c5c(cccc35)CCC4)CC2)c1,,
20,> 100000,CN1CCCC(n2nc(Cc3ccc(Cl)cc3)c3ccccc3c2=O)CC1 (stereo unspecified) [AZELASTINE],3.3,ED50 [7]: 7 µmol/kg
19,7500,CC(=O)c1cc2c3c(c1)c(CCN1CCN(c4cc(C)ccn4)CC1)c(C)n3CCC2,2,inhibition [1]: 48%
33,6900,Cc1ccnc(N2CCN(CCc3c(C)n4c5c(cccc35)CCC4C)CC2)c1 (stereo unspecified),2.6,inhibition [1]: 19%
2900,22000,Cc1ccnc(N2CCN(CCc3c(Cc4ccccc4)n4c5c(cccc35)CCC4)CC2)c1,,
32,2600,Cc1ccnc(N2CCN(CCc3c(C)n4c5c(cccc35)CCC4)CC2)c1,4,inhibition [1]: 0%
65,40000,Cc1c(CCN2CCN(c3ccccn3)CC2)c2cccc3c2n1CCC3,,
980,4800,CCCCC1CCc2cccc3c(CCN4CCN(c5cc(C)ccn5)CC4)c(C)n1c23 (stereo unspecified),2.1,inhibition [1]: 29%
,2000,Cc1ccc(-c2c(CCN3CCN(c4cc(C)ccn4)CC3)c3cccc4c3n2CCC4)cc1,,IC50 [5]: 20000 nM
380,> 100000,O=C(O)COCCN1CCN(C(c2ccccc2)c2ccc(Cl)cc2)CC1 (stereo unspecified) [CETIRIZINE],,
110,4200,Cc1ccnc(N2CCN(CCc3c(C)n4c5c(cc(C(O)C(C)C)cc35)CCC4)CC2)c1 (stereo unspecified),2.6,inhibition [1]: 8%
400,2000,CCCCC1CCc2cc(C(=O)C(C)C)cc3c(CCN4CCN(c5cc(C)ccn5)CC4)c(C)n1c23 (stereo unspecified),3.3,inhibition [1]: 50%
21,39000,Cc1ccnc(N2CCN(CCc3c(C)n4c5c(cc(O)cc35)CCC4)CC2)c1,6,
180,> 100000,Cc1ccc(N2CCN(CCc3c(C)n4c5c(cccc35)CCC4)CC2)nc1,,
140,22000,CC(C)=Cc1cc2c3c(c1)c(CCN1CCN(c4cc(C)ccn4)CC1)c(C)n3CCC2,4.9,inhibition [1]: 41%
250,2000,Cc1ccnc(N2CCN(CCc3c(C)n4c5c(cc(C(=O)C6CCCCC6)cc35)CCC4)CC2)c1,2.9,inhibition [1]: 68%
510,> 100000,Cc1c(CCN2CCN(c3ccc(F)c(Cl)c3)CC2)c2cccc3c2n1CCC3,,
